{"source": "patent US20210254014A1", "about": "“GROWTH INHIBITOR” (Kyoto University, priority 2018, published 2021)", "key": {"[1]": {"system": "human placental blood vessels", "conditions": "cited from earlier work"}, "[2]": {"system": "grafts", "assay": "Autopsy findings and immunohistological staining of grafts excised 5 weeks after transplantation", "assay_type": "in vivo, mice", "conditions": "cell population treated with 1 μM for 12 days, compared with untreated cell population", "text": "(§1) The insulin-producing cell population obtained by culture in the medium for induction of differentiation containing CAS192705-79-6 in the preceding section (1) or an insulin-producing cell population obtained by culture in a medium for induction of differentiation free from CAS192705-79-6 as a comparative example was transplanted beneath the capsule of the kidney using immunodeficient NOD/SCID mice having streptozotocin-induced insulin-deficient diabetes mellitus. For follow-up after the transplantation, human C-peptide concentrations in blood and blood glucose levels were measured. The grafts were excised 5 weeks after the transplantation.\nThe excised grafts were fixed and dehydrated, and then, frozen sections were prepared and subjected to immunohistological staining in order to evaluate unintended cells. The cells of interest that could be expected to maturate into pancreatic islet cells in vivo were evaluated using insulin positivity (and NKX6.1 positivity) or glucagon positivity as an indicator, and unintended cells having the possibility of adversely affecting long-term graft survival of the cells of interest were evaluated using Ki67 positivity as an indicator."}, "[3]": {"system": "Ki67-positive cells", "assay": "Ki67-positive cells by flow cytometry, timing of treatment during insulin-producing cell production (Example 2)", "assay_type": "cell-based", "conditions": "1 μM, mean ± SD of three experiments, absent control 7.57 ± 1.05%", "method": "(§2) 1) An endocrine progenitor cell population obtained by the induction of differentiation from iPS cells were cultured for 11 days in a medium for induction of differentiation (Improved MEM/1% B27/Penicillin Streptomycin) containing differentiation factors (ALK5 inhibitor II, T3, LDN, γ-secretase inhibitor RO, and ascorbic acid) and an FGF receptor 1 inhibitor (CAS192705-79-6) to obtain an insulin-producing cell population.\n(§3) 2) An endocrine progenitor cell population obtained by the induction of differentiation from iPS cells were cultured for 4 days in a medium for induction of differentiation (Improved MEM/1% B27/Penicillin Streptomycin) containing differentiation factors (ALK5 inhibitor II, T3, LDN, γ-secretase inhibitor RO, and ascorbic acid) and thereby induced to differentiate into an insulin-producing cell population. Subsequently, an FGF receptor 1 inhibitor (CAS192705-79-6, 1 μM) was added to a medium for induction of differentiation (Improved MEM/1% B27/Penicillin Streptomycin) containing differentiation factors (ALK5 inhibitor II, T3, LDN, γ-secretase inhibitor RO, and ascorbic acid), and the cells were cultured therein for 7 days.\nas §3, with “3) An” for “2) An”, “for 7” for “for 4”, “for 4” for “for 7”, “days. […]” for “days.”\nThe number of Ki67-positive cells in the cell population obtained by each of the above methods 1), 2), and 3) was counted by flow cytometry to determine the proportion of Ki67-positive cells in each cell population."}, "[4]": {"system": "Ki67-positive cells", "assay": "Ki67-positive cells by flow cytometry after 4 days of treatment with FGFR1 inhibitors at three concentrations (Example 3)", "assay_type": "cell-based", "method": "The number of Ki67-positive cells in the obtained cell population was evaluated by flow cytometry."}, "[5]": {"system": "rat myoblasts", "conditions": "cited from earlier work"}, "[6]": {"system": "immunodeficient NOD/SCID mice having streptozotocin-induced insulin-deficient diabetes mellitus", "assay": "Transplantation of the FGF receptor 1 inhibitor-treated insulin-producing cell population beneath the kidney capsule; human C-peptide in blood and blood glucose", "assay_type": "in vivo", "conditions": "cell population treated with 1 μM for 12 days", "method": "In the description below, the preparation of mice and the transplantation of cells were performed in accordance with known methods.\nas §1, with “The grafts were excised 5 weeks after the transplantation.” left out"}, "[7]": {"system": "Ki67-positive cells", "assay": "Ki67-positive cells by flow cytometry in the insulin-producing cell population obtained by treating an endocrine progenitor cell population for 12 days (Example 1)", "assay_type": "cell-based, human", "conditions": "1 μM, mean ± standard deviation of five experiments, absent control 10.78 ± 4.09%", "method": "The induction of differentiation of the endocrine progenitor cell population into an insulin-producing cell population was carried out according to the above step 6) or the previous report (Nature Biotechnology 2014; 32: 1121-1133).\nas §2, with “The” for “1) An”, “12” for “11”, “population. The number of Ki67-positive cells in the obtained cell population was evaluated by flow cytometry.” for “population.”"}, "[8]": {"system": "rat myoblasts", "conditions": "cited from earlier work", "remark": "listed apart in the source"}, "[9]": {"system": "insulin-positive (and NKX6.1-positive) cells", "assay": "Insulin-positive (and NKX6.1-positive) cells by flow cytometry, timing of treatment (Example 2)", "assay_type": "cell-based", "conditions": "1 μM, relative value, untreated control defined as 100%", "method": "as §2, §3\n3) An endocrine progenitor cell population obtained by the induction of differentiation from iPS cells were cultured for 7 days in a medium for induction of differentiation (Improved MEM/1% B27/Penicillin Streptomycin) containing differentiation factors (ALK5 inhibitor II, T3, LDN, γ-secretase inhibitor RO, and ascorbic acid) and thereby induced to differentiate into an insulin-producing cell population. […]\nThe number of insulin-positive (and NKX6.1-positive) cells in the cell population obtained by each of the above methods 1), 2), and 3) was counted by flow cytometry. The proportion of insulin-positive (and NKX6.1-positive) cells in each method was calculated as a relative value when the number of insulin-positive (and NKX6.1-positive) cells in the control cell population obtained by the above method 4) was defined as 100%."}, "[10]": {"system": "endocrine progenitor cells derived from human iPS cells", "conditions": "cited from earlier work"}, "[11]": {"conditions": "Table 4, 0.3 μM, absent control 4.13%"}, "[12]": {"conditions": "Table 4, 1 μM, absent control 4.13%"}}}
{"smiles": "COc1cc(OC)cc(-c2cc3cnc(N)nc3nc2NC(=O)NC(C)(C)C)c1", "note": "[CAS192705-79-6, 1-[2-amino-6-(3,5-dimethoxyphenyl)-pyrido(2,3-d)pyrimidin-7-yl]-3-tert-butylurea]", "values": [{"measurement": "Elongation of microvessels", "setting": "[1]", "result": "inhibit the elongation of microvessels"}, {"measurement": "Bloatedness of the grafts", "setting": "[2]", "result": "drastic inhibition of bloatedness of the grafts"}, {"measurement": "Proportion of Ki67-positive cells", "setting": "[3]; for last 4 days", "result": "0.57 ± 0.15", "unit": "%"}, {"measurement": "Proportion of Ki67-positive cells", "setting": "[3]; for last 7 days", "result": "0.47 ± 0.15", "unit": "%"}, {"measurement": "Proportion of Ki67-positive cells", "setting": "[3]; from start (11 days)", "result": "0.57 ± 0.35", "unit": "%"}, {"measurement": "Proportion of Ki67-positive cells (%)", "setting": "[4]; Table 4, 0.1 μM, absent control 4.13%", "result": "2.15%;"}, {"measurement": "Proportion of Ki67-positive cells (%)", "setting": "[4]; [11]", "result": "0.99%;"}, {"measurement": "Proportion of Ki67-positive cells (%)", "setting": "[4]; [12]", "result": "0.7%;"}, {"measurement": "Cell proliferation caused by bFGF stimulation", "setting": "[5]", "result": "inhibit cell proliferation caused by bFGF stimulation"}, {"measurement": "Human C-peptide concentration in blood 4 months after transplantation", "setting": "[6]; transplanted beneath the kidney capsule, untreated cells 1440 ± 573", "result": "1486 ± 305", "unit": "pM"}, {"measurement": "Blood glucose level 4 months after transplantation", "setting": "[6]; 4 months later, untreated cells 85 ± 16", "result": "86 ± 22", "unit": "mg/dL"}, {"measurement": "Blood glucose level at time of transplantation", "setting": "[6]; at time of transplantation (baseline)", "result": "516 ± 33", "unit": "mg/dL"}, {"measurement": "Content percentage of Ki67-positive cells (before transplantation)", "setting": "[7]", "result": "0.98 ± 0.29", "unit": "%"}, {"measurement": "Cell proliferation caused by PDGE stimulation", "setting": "[8]", "result": "not inhibit cell proliferation caused by PDGE stimulation"}, {"measurement": "Proportion of insulin-positive (and NKX6.1-positive) cells", "setting": "[9]; for last 4 days", "result": "91 ± 16", "unit": "%"}, {"measurement": "Proportion of insulin-positive (and NKX6.1-positive) cells", "setting": "[9]; for last 7 days", "result": "88 ± 13", "unit": "%"}, {"measurement": "Proportion of insulin-positive (and NKX6.1-positive) cells", "setting": "[9]; from start (11 days)", "result": "45 ± 15", "unit": "%"}, {"measurement": "Differentiation of endocrine progenitor cells", "setting": "[10]", "result": "can be promoted"}]}
{"smiles": "COCCCOc1ccnc(C[S+]([O-])c2nc3ccccc3[nH]2)c1C", "note": "(stereo not drawn) [E-3810]", "values": [{"measurement": "Proportion of Ki67-positive cells (%)", "setting": "[4]; [11]", "result": "2.74%;"}, {"measurement": "Proportion of Ki67-positive cells (%)", "setting": "[4]; [12]", "result": "1.51%;"}, {"measurement": "Proportion of Ki67-positive cells (%)", "setting": "[4]; Table 4, 10 μM, absent control 4.13%", "result": "0.67%;"}]}
{"smiles": "CCN(CC)CCCCNc1ncc2cc(-c3cc(OC)cc(OC)c3)c(NC(=O)NC(C)(C)C)nc2n1", "note": "[PD-173074]", "values": [{"measurement": "Proportion of Ki67-positive cells (%)", "setting": "[4]; Table 5, 0.1 μM, absent control 2.7%", "result": "0.7%;"}, {"measurement": "Proportion of Ki67-positive cells (%)", "setting": "[4]; Table 5, 1 μM, absent control 2.7%", "result": "0.7%;"}, {"measurement": "Proportion of Ki67-positive cells (%)", "setting": "[4]; Table 5, 5 μM, absent control 2.7%", "result": "0.5%;"}]}
